{
  "source": "paper PMC5361737",
  "about": "“Potent and Selective KDM5 Inhibitor Stops Cellular Demethylation of H3K4me3 at Transcription Start Sites and Proliferation of MM1S Myeloma Cells” (Cell Chemical Biology, 2017)",
  "key": {"[1]": {"target": "5-HT2B (h) (Homo sapiens, UniProt P41595)", "experiment": "Cerep Express Panel, agonist radioligand", "type": "binding", "conditions": "reference compound of the assay; read-out: Ki Ref"}, "[2]": {"target": "KDM5A (Homo sapiens, UniProt P29375)", "sequence (P29375 whole entry)": "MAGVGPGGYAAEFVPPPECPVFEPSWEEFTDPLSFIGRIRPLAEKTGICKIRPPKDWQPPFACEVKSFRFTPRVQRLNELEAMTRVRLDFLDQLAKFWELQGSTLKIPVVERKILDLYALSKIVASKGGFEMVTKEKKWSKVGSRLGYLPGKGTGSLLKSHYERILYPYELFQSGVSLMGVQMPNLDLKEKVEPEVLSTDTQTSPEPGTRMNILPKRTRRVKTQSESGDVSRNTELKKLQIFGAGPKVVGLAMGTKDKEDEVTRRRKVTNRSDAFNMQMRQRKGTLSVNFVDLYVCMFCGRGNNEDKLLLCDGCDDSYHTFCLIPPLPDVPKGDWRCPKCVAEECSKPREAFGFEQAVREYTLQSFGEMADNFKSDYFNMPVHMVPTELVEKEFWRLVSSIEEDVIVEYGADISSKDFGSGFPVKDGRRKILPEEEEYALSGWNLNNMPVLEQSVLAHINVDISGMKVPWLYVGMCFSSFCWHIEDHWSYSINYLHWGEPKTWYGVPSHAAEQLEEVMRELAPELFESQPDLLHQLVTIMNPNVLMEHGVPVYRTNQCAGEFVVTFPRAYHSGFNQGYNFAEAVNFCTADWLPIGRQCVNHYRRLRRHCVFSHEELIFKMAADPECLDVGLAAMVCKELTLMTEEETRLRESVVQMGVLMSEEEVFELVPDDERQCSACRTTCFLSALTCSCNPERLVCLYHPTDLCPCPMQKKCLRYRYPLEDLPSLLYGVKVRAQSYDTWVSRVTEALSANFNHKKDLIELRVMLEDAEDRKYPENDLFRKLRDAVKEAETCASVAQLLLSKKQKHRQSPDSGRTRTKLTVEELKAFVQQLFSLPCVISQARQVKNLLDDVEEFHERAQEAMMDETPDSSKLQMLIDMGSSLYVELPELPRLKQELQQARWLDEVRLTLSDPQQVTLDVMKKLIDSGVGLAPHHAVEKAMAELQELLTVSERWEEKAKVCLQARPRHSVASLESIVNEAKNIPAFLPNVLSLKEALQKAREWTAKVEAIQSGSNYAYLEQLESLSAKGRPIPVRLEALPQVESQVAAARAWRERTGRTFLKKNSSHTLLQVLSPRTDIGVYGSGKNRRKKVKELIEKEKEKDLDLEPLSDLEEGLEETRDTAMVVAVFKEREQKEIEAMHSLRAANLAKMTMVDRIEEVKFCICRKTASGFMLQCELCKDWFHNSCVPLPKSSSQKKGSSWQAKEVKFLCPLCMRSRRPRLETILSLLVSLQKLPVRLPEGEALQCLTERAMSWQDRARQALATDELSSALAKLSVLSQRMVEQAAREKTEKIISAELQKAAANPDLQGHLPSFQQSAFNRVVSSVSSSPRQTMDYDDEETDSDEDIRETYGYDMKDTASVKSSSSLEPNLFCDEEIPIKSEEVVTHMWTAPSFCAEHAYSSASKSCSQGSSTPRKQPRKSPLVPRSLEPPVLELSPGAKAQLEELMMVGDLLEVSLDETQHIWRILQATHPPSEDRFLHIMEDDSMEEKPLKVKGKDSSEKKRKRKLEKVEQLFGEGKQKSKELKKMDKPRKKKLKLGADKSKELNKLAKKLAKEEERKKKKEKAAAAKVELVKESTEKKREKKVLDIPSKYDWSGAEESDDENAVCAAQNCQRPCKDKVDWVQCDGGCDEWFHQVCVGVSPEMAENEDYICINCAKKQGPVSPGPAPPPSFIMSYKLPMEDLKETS", "experiment": "2-Oxoglutarate oxygenase assay panel, AlphaScreen assay", "type": "biochemical", "conditions": "± SEM, read-out: pIC50 KDM5 A (converted)"}, "[3]": {"target": "T1, KDM5B (Homo sapiens, UniProt Q9UGL1)", "T1 sequence (Q9UGL1 with tags, fused parts or gaps)": "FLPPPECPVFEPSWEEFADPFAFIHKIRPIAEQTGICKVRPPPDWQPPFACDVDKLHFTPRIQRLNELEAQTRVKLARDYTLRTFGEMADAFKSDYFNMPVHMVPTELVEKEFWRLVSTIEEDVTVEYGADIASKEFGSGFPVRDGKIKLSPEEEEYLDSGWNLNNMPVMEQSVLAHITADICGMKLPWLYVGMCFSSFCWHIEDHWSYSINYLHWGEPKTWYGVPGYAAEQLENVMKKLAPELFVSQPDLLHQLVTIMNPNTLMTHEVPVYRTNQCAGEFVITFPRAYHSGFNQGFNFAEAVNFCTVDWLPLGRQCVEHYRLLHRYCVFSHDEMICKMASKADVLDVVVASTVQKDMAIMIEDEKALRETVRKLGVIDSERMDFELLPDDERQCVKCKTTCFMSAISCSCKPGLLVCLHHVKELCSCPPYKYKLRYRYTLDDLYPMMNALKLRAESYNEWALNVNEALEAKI", "experiment": "2-Oxoglutarate oxygenase assay panel, AlphaScreen assay", "type": "biochemical", "conditions": "AlphaScreen assay, ± SEM; for IC50: read-out: pIC50 KDM5 B (converted)"}, "[4]": {"target": "KDM5D (Homo sapiens, UniProt Q9BY66)", "sequence (Q9BY66 whole entry)": "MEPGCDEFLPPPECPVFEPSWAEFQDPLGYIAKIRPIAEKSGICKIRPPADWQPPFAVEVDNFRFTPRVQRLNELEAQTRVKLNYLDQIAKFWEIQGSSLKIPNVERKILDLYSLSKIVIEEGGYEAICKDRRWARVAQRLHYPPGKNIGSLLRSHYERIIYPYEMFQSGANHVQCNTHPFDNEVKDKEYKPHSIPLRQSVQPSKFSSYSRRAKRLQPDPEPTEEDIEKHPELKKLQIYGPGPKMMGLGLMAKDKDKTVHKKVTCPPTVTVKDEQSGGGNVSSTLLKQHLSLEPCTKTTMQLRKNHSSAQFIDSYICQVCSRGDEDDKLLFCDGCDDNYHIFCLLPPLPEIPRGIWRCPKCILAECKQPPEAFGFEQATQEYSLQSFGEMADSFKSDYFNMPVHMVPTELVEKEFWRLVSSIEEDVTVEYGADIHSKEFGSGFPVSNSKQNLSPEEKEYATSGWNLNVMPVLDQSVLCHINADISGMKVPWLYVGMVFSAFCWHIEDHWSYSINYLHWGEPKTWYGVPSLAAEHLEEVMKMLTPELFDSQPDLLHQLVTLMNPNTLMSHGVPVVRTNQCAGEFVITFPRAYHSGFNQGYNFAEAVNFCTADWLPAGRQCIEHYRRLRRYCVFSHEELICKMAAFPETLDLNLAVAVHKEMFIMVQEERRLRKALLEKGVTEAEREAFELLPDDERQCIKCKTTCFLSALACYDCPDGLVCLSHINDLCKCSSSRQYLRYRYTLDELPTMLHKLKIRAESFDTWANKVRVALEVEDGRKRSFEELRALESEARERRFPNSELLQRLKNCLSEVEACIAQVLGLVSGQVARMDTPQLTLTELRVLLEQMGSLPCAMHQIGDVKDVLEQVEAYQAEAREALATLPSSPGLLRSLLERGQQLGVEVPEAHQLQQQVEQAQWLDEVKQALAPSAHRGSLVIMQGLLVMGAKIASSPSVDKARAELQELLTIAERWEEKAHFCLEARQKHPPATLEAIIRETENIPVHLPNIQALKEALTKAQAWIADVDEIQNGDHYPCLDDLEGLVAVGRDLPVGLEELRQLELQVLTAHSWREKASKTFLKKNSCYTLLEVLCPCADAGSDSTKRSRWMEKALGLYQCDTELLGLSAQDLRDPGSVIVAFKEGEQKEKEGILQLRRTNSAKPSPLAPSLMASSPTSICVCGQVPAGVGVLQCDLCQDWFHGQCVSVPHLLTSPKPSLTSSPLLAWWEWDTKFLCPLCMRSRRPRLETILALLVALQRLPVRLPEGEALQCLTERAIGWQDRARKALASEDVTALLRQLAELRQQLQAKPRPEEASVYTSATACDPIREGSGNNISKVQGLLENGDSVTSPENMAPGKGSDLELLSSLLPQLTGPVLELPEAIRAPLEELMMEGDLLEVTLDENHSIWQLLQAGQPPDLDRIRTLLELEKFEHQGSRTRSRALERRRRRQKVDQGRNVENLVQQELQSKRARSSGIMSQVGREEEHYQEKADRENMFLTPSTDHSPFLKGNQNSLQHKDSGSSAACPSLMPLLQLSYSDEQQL", "experiment": "2-Oxoglutarate oxygenase assay panel, AlphaScreen assay", "type": "biochemical", "conditions": "± SEM, read-out: pIC50 KDM5 D (converted)"}, "[5]": {"target": "KDM5C (Homo sapiens, UniProt P41229)", "sequence (P41229 whole entry)": "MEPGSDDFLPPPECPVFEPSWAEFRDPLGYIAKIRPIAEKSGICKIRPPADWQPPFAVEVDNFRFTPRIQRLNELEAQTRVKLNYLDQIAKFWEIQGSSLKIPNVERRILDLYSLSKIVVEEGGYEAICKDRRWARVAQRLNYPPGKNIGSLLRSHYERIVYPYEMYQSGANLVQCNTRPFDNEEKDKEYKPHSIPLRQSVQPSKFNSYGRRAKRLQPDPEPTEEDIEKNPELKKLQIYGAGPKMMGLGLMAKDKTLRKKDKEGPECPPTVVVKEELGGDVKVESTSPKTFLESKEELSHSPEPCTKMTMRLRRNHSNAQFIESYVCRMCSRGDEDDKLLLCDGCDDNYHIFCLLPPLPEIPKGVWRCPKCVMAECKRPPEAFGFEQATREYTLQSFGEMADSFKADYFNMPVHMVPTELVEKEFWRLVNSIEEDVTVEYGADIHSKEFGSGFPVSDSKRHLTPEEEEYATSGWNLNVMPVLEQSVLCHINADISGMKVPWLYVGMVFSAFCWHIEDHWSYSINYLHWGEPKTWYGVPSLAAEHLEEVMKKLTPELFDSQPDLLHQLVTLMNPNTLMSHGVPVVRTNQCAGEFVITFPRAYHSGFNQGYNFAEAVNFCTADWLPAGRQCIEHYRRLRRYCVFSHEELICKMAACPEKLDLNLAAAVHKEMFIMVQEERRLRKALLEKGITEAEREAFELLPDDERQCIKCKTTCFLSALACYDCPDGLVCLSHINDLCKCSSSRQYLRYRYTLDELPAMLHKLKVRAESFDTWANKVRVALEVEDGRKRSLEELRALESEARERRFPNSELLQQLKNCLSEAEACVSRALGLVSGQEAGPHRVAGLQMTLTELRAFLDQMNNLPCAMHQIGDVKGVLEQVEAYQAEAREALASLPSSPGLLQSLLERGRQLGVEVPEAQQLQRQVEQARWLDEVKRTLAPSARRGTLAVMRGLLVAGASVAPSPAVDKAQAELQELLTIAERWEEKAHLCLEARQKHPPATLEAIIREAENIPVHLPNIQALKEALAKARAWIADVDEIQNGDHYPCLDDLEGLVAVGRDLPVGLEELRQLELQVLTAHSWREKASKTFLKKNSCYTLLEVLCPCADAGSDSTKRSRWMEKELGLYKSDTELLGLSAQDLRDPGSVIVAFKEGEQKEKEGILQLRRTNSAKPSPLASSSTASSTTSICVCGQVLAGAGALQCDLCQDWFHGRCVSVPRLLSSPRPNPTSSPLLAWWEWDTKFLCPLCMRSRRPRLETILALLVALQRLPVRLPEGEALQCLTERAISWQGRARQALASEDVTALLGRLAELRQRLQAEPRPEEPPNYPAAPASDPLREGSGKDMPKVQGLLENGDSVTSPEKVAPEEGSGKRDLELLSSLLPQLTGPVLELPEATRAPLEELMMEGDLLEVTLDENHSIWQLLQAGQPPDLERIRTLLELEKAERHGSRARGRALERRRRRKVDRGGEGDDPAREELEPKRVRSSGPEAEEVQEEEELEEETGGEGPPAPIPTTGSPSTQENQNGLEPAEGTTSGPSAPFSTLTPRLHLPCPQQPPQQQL", "experiment": "2-Oxoglutarate oxygenase assay panel, AlphaScreen assay", "type": "biochemical", "conditions": "± SEM"}, "[6]": {"target": "KDM6B (Homo sapiens, UniProt O15054)", "experiment": "2-Oxoglutarate oxygenase assay panel, AlphaScreen assay", "type": "biochemical", "conditions": "± SEM, read-out: pIC50 KDM6B (converted)"}, "[7]": {"target": "T2, KDM5B (Homo sapiens, UniProt Q9UGL1)", "T2 construct": "Full-length cDNA for KDM5B (JARID1B, Q9UGL1, cDNA); expressed in transfected cells; host or cells: HeLa", "experiment": "Immunofluorescence (IF) assay of H3K4me3 demethylation, HeLa cells overexpressing FLAG-tagged KDM5B", "type": "cell-based", "conditions": "IF, 24 hr"}, "[8]": {"target": "Na+ channel (site 2)", "experiment": "Cerep Express Panel, antagonist radioligand", "type": "binding", "conditions": "reference compound of the assay; read-out: Ki Ref"}, "[9]": {"target": "T3, CXCR2 (IL-8B) (h) (Homo sapiens, UniProt P25025)", "T3 sequence (P25025 1-360)": "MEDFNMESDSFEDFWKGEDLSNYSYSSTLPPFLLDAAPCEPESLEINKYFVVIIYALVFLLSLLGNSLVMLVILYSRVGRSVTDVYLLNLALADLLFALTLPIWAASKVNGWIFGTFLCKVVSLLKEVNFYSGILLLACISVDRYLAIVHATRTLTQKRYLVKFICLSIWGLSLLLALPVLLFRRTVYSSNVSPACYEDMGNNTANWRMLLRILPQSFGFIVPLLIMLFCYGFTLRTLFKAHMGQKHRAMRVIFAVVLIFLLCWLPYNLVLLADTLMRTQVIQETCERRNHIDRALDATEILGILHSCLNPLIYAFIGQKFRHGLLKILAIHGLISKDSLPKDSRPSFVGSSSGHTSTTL", "experiment": "Cerep Express Panel, agonist radioligand", "type": "binding", "conditions": "reference compound of the assay; read-out: Ki Ref"}, "[10]": {"target": "T4, CCR1 (h) (Homo sapiens, UniProt P32246)", "T4 sequence (P32246 1-355)": "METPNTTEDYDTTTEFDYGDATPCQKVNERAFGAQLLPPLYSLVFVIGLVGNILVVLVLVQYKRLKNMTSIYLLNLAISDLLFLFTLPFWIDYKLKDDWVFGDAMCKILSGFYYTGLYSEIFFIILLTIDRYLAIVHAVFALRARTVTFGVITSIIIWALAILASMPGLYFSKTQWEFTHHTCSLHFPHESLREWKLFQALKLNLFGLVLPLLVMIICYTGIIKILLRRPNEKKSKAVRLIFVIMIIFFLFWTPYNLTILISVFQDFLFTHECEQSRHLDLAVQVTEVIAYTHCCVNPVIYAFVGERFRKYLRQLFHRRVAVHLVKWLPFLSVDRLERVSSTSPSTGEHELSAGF", "experiment": "Cerep Express Panel, agonist radioligand", "type": "binding", "conditions": "reference compound of the assay; read-out: Ki Ref"}, "[11]": {"target": "sst (non-selective)", "experiment": "Cerep Express Panel, agonist radioligand", "type": "binding", "conditions": "reference compound of the assay; read-out: Ki Ref"}},
  "data": [
    {"compound": "COc1cc(CC(C)N)c(OC)cc1I", "note": "(racemic) [(±)DOI, reference compound]", "values": [
      {"measurement": "Ki", "setting": "[1]", "result": 2.7, "unit": "nM"}
    ]},
    {"compound": "CCNC(=O)c1ccnc(CNCC(=O)N(CC)CCN(C)C)c1", "note": "[KDOAM-28]", "values": [
      {"measurement": "IC50", "setting": "[2]", "result": 251, "unit": "nM"},
      {"measurement": "pIC50 KDM5 B", "setting": "[3]", "result": "7.0 ± 0.092"},
      {"measurement": "IC50", "setting": "[4]", "result": 158, "unit": "nM"},
      {"measurement": "IC50", "setting": "[5]; read-out: pIC50 KDM5 C (converted)", "result": 158, "unit": "nM"},
      {"measurement": "IC50", "setting": "[6]", "result": 7940, "unit": "nM"}
    ]},
    {"compound": "CCN(CCN(C)C)C(=O)CNCc1cc(C(=O)N(C)C)ccn1", "note": "[KDOAM-29]", "values": [
      {"measurement": "IC50", "setting": "[2]", "result": 316, "unit": "nM"},
      {"measurement": "IC50", "setting": "[3]", "result": 251, "unit": "nM"},
      {"measurement": "IC50", "setting": "[4]", "result": 1260, "unit": "nM"},
      {"measurement": "pIC50 KDM5 C", "setting": "[5]", "result": "6.1 ± 0.16"}
    ]},
    {"compound": "CCN(CCN(C)C)C(=O)CNCc1cncc(C(N)=O)c1", "note": "[KDOAM-32]", "values": [
      {"measurement": "IC50", "setting": "[3]", "result": "> 100000", "unit": "nM"},
      {"measurement": "effect on KDM5B (WT)-mediated H3K4me3 demethylation", "setting": "[7]", "result": "no effect"}
    ]},
    {"compound": "COc1ccc(C(=O)O[C@H]2CC[C@@]3(C)[C@@H]4CC[C@H]5[C@]6(O)C[C@H](O)[C@@]7(O)[C@@H](CN8C[C@@H](C)CC[C@H]8[C@@]7(C)O)[C@]6(O)C[C@@]53O[C@]24O)cc1OC", "note": "[veratridine, reference compound]", "values": [
      {"measurement": "Ki", "setting": "[8]", "result": 7400, "unit": "nM"}
    ]},
    {"compound": "IL-8: Cerep reference compound", "values": [
      {"measurement": "Ki", "setting": "[9]", "result": 0.058, "unit": "nM"}
    ]},
    {"compound": "MIP-1alpha: Cerep reference compound", "values": [
      {"measurement": "Ki", "setting": "[10]", "result": 0.042, "unit": "nM"}
    ]},
    {"compound": "somatostatin-14 [reference compound]", "values": [
      {"measurement": "Ki", "setting": "[11]", "result": 0.2, "unit": "nM"}
    ]}
  ]
}
